The values below come from patent US5994308A, “Broad spectrum antimicrobial peptides containing a tryptophan triplet and methods of use” (Board of Trustees of Southern Illinois University, priority 1997, dated 1999).

Where a SMILES comes first, the peptide text is derived from it.

The subject of one assay is Aspergillus fumigatus. Format: cell-based. Particulars: 24 h. As to the method: (§1) The minimum inhibitory concentration (MIC) was determined by growing fungal strains in YG media until the fungi reached logarithmic phase. The cells were diluted in YG medium then placed in a 96-well plate along with a series of 2-fold dilutions of the peptides. The plate was then incubated at 37° C. for 24 hours. Minimum inhibitory growth was defined as the lowest concentration at which there was no fungal growth.

For a further assay, the system named is Candida albicans. It is filed as cell-based. The note with it: 24 h. As to the method: as §1

As to `CC(C)C[C@H](NC(=O)[C@H](Cc1ccccc1)NC(=O)[C@@H]1CCCN1C(=O)[C@H](Cc1c[nH]c2ccccc12)NC(=O)[C@H](Cc1c[nH]c2ccccc12)NC(=O)[C@H](Cc1c[nH]c2ccccc12)NC(=O)[C@@H]1CCCN1C(=O)[C@H](Cc1ccccc1)NC(=O)[C@H](CCCNC(=N)N)NC(=O)[C@H](CCCNC(=N)N)NC(=O)[C@@H](N)C(C)C)C(=O)N[C@@H](CCCNC(=N)N)C(=O)N[C@@H](CCCNC(=N)N)C(=O)O` [Peptide 1, VRRFPWWWPFLRR], the “MINIMUM INHIBITORY CONCENTRATION Aspergillus fumigatus” value in the assay with Aspergillus fumigatus amounted to 250 µg/mL. The “MINIMUM INHIBITORY CONCENTRATION Candida albicans” value in the assay with Candida albicans worked out at 1000 µg/mL.

Consider `CC(C)C[C@H](NC(=O)[C@H](Cc1ccccc1)NC(=O)[C@@H]1CCCN1C(=O)[C@H](Cc1c[nH]c2ccccc12)NC(=O)[C@H](Cc1c[nH]c2ccccc12)NC(=O)[C@H](Cc1c[nH]c2ccccc12)NC(=O)[C@@H]1CCCN1C(=O)[C@H](Cc1ccccc1)NC(=O)[C@@H](N)CCCNC(=N)N)C(=O)N[C@@H](CCCNC(=N)N)C(=O)O` [Peptide 3, RFPWWWPFLR] (H-RFPWWWPFLR-OH), for which the “MINIMUM INHIBITORY CONCENTRATION Aspergillus fumigatus” value with Aspergillus fumigatus worked out at 500 µg/mL.

On to `N[C@@H](Cc1ccccc1)C(=O)N1CCC[C@H]1C(=O)N[C@@H](Cc1c[nH]c2ccccc12)C(=O)N[C@@H](Cc1c[nH]c2ccccc12)C(=O)N[C@@H](Cc1c[nH]c2ccccc12)C(=O)N1CCC[C@H]1C(=O)N[C@@H](Cc1ccccc1)C(=O)O` [Peptide 4, FPWWWPF] (H-FPWWWPF-OH), for which the “MINIMUM INHIBITORY CONCENTRATION Aspergillus fumigatus” value with Aspergillus fumigatus is 500 µg/mL.
